In article PMC7157554, “Anti-Trypanosomal Proteasome Inhibitors Cure Hemolymphatic and Meningoencephalic Murine Infection Models of African Trypanosomiasis” (Tropical Medicine and Infectious Disease, 2020):
In brackets after ≈: the same amount, converted by molar mass. Where two headings read alike, the source gives them in different places.

Assays:
T. b. brucei = experiment: Growth inhibition of T. b. brucei strains BS221, BS221 (P2 KO), STIB950; format: cell-based; settings: Trypanosoma brucei, mean ± SD, read-out: T. b. brucei EC50
Experimental: The T. b. brucei strain Lister 427 (bloodstream form) parasites were continuously grown in complete HMI-9 medium supplemented with 10% Serum Plus and 10% heat-inactivated fetal bovine serum (FBS). All other parasite strains were cultured as described elsewhere.
For determination of 50% growth inhibition, all compounds were dissolved in DMSO, and 200 nL of threefold serially diluted compounds were added into solid-bottom 384-well white plates (Greiner Bio-One, Kremsmunster, Austria) by an Echo 555 acoustic liquid-handling system. Forty microliters of 10^4 cells/mL of T. b. brucei parasites was added into each well, and the plates were incubated in a 5% CO2 incubator at 37 °C for 48 h. Viability of parasites were determined by measuring intracellular ATP levels, using CellTiter-Glo (CTG) luminescent cell viability reagent (Promega, Madison, Wisconsin WI, USA). The EC50 values were determined by using GraphPad Prism software. Growth inhibition assays for all clinical isolates were carried out as described earlier. All experiments had two technical replicates and three biological replicates. […]

T. b. rhodesiense = experiment: Growth inhibition of T. b. rhodesiense strains; format: cell-based; settings: Trypanosoma brucei, mean ± SD, read-out: T. b. rhodesiense EC50
T. b. gambiense = experiment: Growth inhibition of T. b. gambiense strains; format: cell-based; settings: Trypanosoma brucei, mean ± SD, read-out: T. b. gambiense EC50
MDR1 (Pgp) = experiment: in vitro; settings: dog, MDCK-MDR1
Experimental: In order to evaluate potential of brain permeability, all three compounds were tested in an MDR1-MDCK permeability assay. […] Those that have a high efflux ratio are generally substrates for Pgp transporters, thereby having a higher propensity to be excluded from the brain. […] To assess directly the TP compounds’ ability to penetrate brain, mice were dosed with compound, and plasma and brains were collected after 5 and 60 min following intravenous dosing.

[1] = Per oral pharmacokinetics in mouse; format: in vivo; settings: for AUC / Cmax: total
Experimental: Determination of intravenous (i.v.) and per oral (p.o.) pharmacokinetics (PK) were carried out by using male BALB/c mice. For i.v. PK studies, compounds were formulated at a concentration of 2.5 mg/mL in 75% PEG300 and 25% D5W (5% dextrose in distilled water). To avoid any granular material, the solution was filtered, using a 0.45 μm syringe filter. The filtered solutions were dosed intravenously to mice via the lateral tail vein, at 5 mg/kg, with a dosing volume of 2 mL/kg. For all the p.o. PK studies, compounds were resuspended in 0.5% v/v methyl cellulose in 0.5 % v/v tween 80 solution. For 20 mg/kg dosing, 200 µL of compounds was administered orally to mice. Six blood samples of 50 μL each were collected serially from each animal, up to 24 h after dosing. Blood samples were collected into heparin microtainers and centrifuged, and then plasma was separated and frozen until analysis. Plasma samples (20 μL) were extracted with acetonitrile:methanol (3:1) containing internal standard. The samples were vortexed and then centrifuged in an Eppendorf centrifuge 5810R, at a setting of 4000 rpm, for 5 min, at 4 °C. The supernatant was transferred to a 96-well analysis plate and analyzed, using optimized LC/MS/MS conditions. For every experiment, 3 mice were used per compound, per dose. The plasma concentration-time profile was obtained by plotting the mean value from the three animals at each time point. Various PK parameters, such as Cmax (maximum concentration), area under curve (AUC) and oral bioavailability (F) for compounds, were calculated by non-compartmental regression analysis, using an in-house fitting program developed at GNF [8]. All the in-life studies were carried out under protocols approved by the Animal Care and Use Committee (IACUC), following animal ethics guidelines of GNF.

Rat brain tissue binding = format: in vitro ADME; settings: rat brain tissue homogenate
Experimental: (§1) Test compounds’ solubility was determined in a high-throughput thermodynamic solubility assay, as described previously. The PAMPA (parallel artificial membrane) assays were carried out, using a standard protocol. Plasma protein binding was determined by using mouse blood, whilst brain tissue binding was determined by using rat brain tissue homogenate. Intrinsic metabolic clearances were determined in mouse liver microsomes, using the compound depletion approach and LC–MS/MS quantification.

[2] = HepG2 cytotoxicity assay (CCK-8, 96 h); format: cell-based, human; settings: human, HepG2 cells, mean ± SEM
Experimental: The HepG2 (human hepatocellular carcinoma) cells were obtained from ATCC (American Type Culture Collection) and grown in RPMI media. Cytotoxicity assay was performed in 384-well format, and 25 µL, approximately 1.6 × 10^4 cells/mL, suspension was added to clear-bottom 384-well Griener plates and incubated in 5% CO2 incubator, at 37 °C for 24 h. Once the cells adhered, 125 nL of threefold serially diluted compounds in DMSO was added. Plates were incubated for 96 h, at 37 °C, in a 5% CO2 incubator. Plates were read for viability by adding 10 µL of CCK-8 reagent (APExBIO) into each well, followed by 3 h incubation and absorbance reading at […], using an Envision plate reader. […] Puromycin was used as a positive control. All experiments had two technical replicates and three biological replicates. Appropriate statistical tests were used for evaluating significance, and mean ± SEM is represented in the tables.

[3] = High-throughput thermodynamic solubility assay; format: physicochemical; settings: for solubility: pH 6.8, thermodynamic from solid
Experimental: as §1

T. brucei PSMB4^WT = experiment: Growth inhibition of T. brucei expressing wild-type 20S proteasome β4 subunit; format: cell-based; settings: Trypanosoma brucei, read-out: T. brucei PSMB4^WT EC50
Experimental: For determination of 50% growth inhibition, all compounds were dissolved in DMSO, and 200 nL of threefold serially diluted compounds were added into solid-bottom 384-well white plates (Greiner Bio-One, Kremsmunster, Austria) by an Echo 555 acoustic liquid-handling system. Forty microliters of 10^4 cells/mL of T. b. brucei parasites was added into each well, and the plates were incubated in a 5% CO2 incubator at 37 °C for 48 h. Viability of parasites were determined by measuring intracellular ATP levels, using CellTiter-Glo (CTG) luminescent cell viability reagent (Promega, Madison, Wisconsin WI, USA). The EC50 values were determined by using GraphPad Prism software. Growth inhibition assays for all clinical isolates were carried out as described earlier. All experiments had two technical replicates and three biological replicates. Appropriate statistical tests were used for evaluating significance, and mean ± SEM is represented in the tables.

[4] = RHODESIENSE / STIB900, strain STIB900
[5] = RHODESIENSE / STIB900, strain STIB900 Mel^R (melarsoprol-resistant)
[6] = RHODESIENSE / STIB900, strain STIB900 Pent^R (pentamidine-resistant)
[7] = GAMBIENSE / STIB930, strain STIB930
[8] = male, BALB/c, plasma, po, p.o. 20 mg/kg, 0 to infinity
[9] = male, BALB/c, plasma, po, p.o. 20 mg/kg

SMILES | EC50 (T. b. brucei; STIB950, strain STIB950) | EC50 (T. b. brucei; strain BS221 (P2 KO)) | EC50 (T. b. brucei; strain BS221) | EC50 (T. b. rhodesiense; [4]) | EC50 (T. b. rhodesiense; [5]) | EC50 (T. b. rhodesiense; [6]) | EC50 (T. b. gambiense; [7]) | EC50 (T. b. gambiense; GAMBIENSE, strain K048) | EC50 (T. b. gambiense; GAMBIENSE, strain R130) | efflux ratio (MDR1 (Pgp)) | AUC [1, 8] | Cmax [1, 9] | Tmax ([1]; p.o. 20 mg/kg) | Cmax, free fraction (value in parenthesis) ([1]; p.o. 20 mg/kg, free) | BTB (rat brain tissue binding) (Rat brain tissue binding) | CC50 at 96 h [2] | solubility [3] | EC50 (T. brucei PSMB4^WT) | also measured
Cc1nc(C)c(C(=O)Nc2ccc(F)c(-c3nc4ncc(-c5ccccn5)cn4n3)c2)o1 [GNF6702] | 1.2 ± 0.5 nM | 3.5 ± 1.2 nM | 0.9 ± 0.3 nM | 1.6 ± 0.9 nM | 0.7 ± 0.2 nM | 1.2 ± 0.3 nM | 3.7 ± 2 nM | 3.5 ± 1.4 nM | 2.3 ± 1.1 nM | – | – | – | – | – | – | – | – | – | –
Cc1nc(C)c(C(=O)Nc2ccc(F)c(-c3nc4ncc(-c5ccccc5)cn4n3)c2)o1 [GNF3849] | 0.9 ± 0.2 nM | 4 ± 2.5 nM | 1.9 ± 0.8 nM | 1.4 ± 1 nM | 0.6 nM | 1.7 ± 1 nM | 4.5 ± 1 nM | 4.8 ± 1.1 nM | 1.9 ± 1 nM | 3.2 | 108 µM·h | 7.16 µM | 3 H | < 0.0716 µM | >99% | 1100 ± 200 nM | < 2 µg/mL | 10 ± 3 nM | Exposure, fold less than GNF6702 ([1]; oral): ~ 2.5 fold; AUC, free fraction (value in parenthesis) ([1]; p.o. 20 mg/kg, 0 to infinity, free): < 1.0751 µM·h; Solubility pH 6.8 ([3]; pH 6.8): poor
Cc1nc(C)c(C(=O)Nc2ccc(F)c(-c3nc4ncc(C(C)(C)C)cn4n3)c2)o1 [NITD689] | – | – | – | – | – | – | – | – | – | 0.9 | 89.7 µM·h | 12.2 µM | 0.5 H | 1.1562 µM | 96.5% | > 20000 nM | 71 µg/mL (≈ 174 µM) | 20 ± 4 nM | bioavailability ([1]; male, BALB/c, plasma, po, p.o. 20 mg/kg, read-out: F (oral bioavailability)): 100%
